System: TG-180 tumour cells
Experiment: Antitumour action on grafted TG-180 ascitic tumour
Settings: for anti-tumour effect (in words): TG-180 graft in mice
Experimental: In order to test the antitumour capacity of SCL inhibiting sugars, TG-180 tumour cells originating from a tumour resistant to chemical metabolic inhibitors was grafted. In a concentration of 3×10^6 cells injected i.p. into 20 gr Swiss mice, an ascitic tumour is obtained which is detectable in 10 days and kills practically 100% of the animals in 21-25 days.
In parallel series, the various groups of animals were treated 3 days after inoculation, either with a specific sugar (glucosamine, lactose, galacturonate, N.A.N.A., neuramine-lactose) in a 5 to 10% solution, the sugar concentration being 100 mM, or with the same treatment in association with an injection of immuno-stimulant (extract of corynebacterium parvum, Merieux, France), in a dose of 200 g/mouse, or interferon, or both.
4 groups of mice per experiment were used.
They are assessed by the percentage of tumours that appeared on the 10th day, the mean survival time of the animals (MST) in. days, and the final survival (as a percentage).

Row | Compound | Final survival (%) (+CP) | Final survival, Number (+CP) | MST (mean survival time) (+CP) [days] | Tumours on 10th day (%) (+CP) | Tumours on 10th day, number (+CP) | Final survival (%) (+CP +IFN) | Final survival, Number (+CP +IFN) | MST (mean survival time) (+CP +IFN) [days] | Tumours on 10th day (%) (+CP +IFN) | Tumours on 10th day, number (+CP +IFN) | Final survival (%) (+IFN) | Final survival, Number (+IFN) | MST (mean survival time) (+IFN) [days] | Tumours on 10th day (%) (+IFN) | Tumours on 10th day, number (+IFN) | Final survival (%) (agent alone) | Final survival, Number (agent alone) | MST (mean survival time) (agent alone) [days] | Tumours on 10th day (%) (agent alone) | Tumours on 10th day, number (agent alone) | also measured
1 | NCCCC(=O)O [GABA, gamma aminobutyric acid] | (53) % | 24 | 68 ± 11 | 55 | 25 | (56) % | 17 | 70 ± 13 | 23% | 7 | (24) % | 11 | 43 ± 10 | 42 | 19 | (13) % | 4 | 35 ± 9 | 46 | 14 | anti-tumour effect (in words): inhibit oncogenesis significantly
2 | OC[C@H]1O[C@@H](O[C@H]2[C@H](O)[C@@H](O)C(O)O[C@@H]2CO)[C@H](O)[C@@H](O)[C@H]1O (stereo partly drawn) [Lactose, lactose] | (46) % | 14 | 82 ± 13 | 10 | 3 | (64) % | 29 | 75 ± 10 | 13% | 6 | (13) % | 6 | 64 ± 9 | 20 | 9 | (3) % | 1 | 26 ± 6 | 36 | 11 | Final survival (%) (+CP, listed as lactose): 43%
3 | CC(=O)N[C@H]1C(O)O[C@H](CO)[C@@H](O)[C@@H]1O (stereo partly drawn) [N-acetylglucosamine] | – | – | – | – | – | – | – | – | – | – | – | – | – | – | – | – | – | – | – | – | anti-tumour effect (in words): comparable anti-tumour effects
4 | CCC(N)C(=O)O (stereo not drawn) [alphaaminobut., alpha aminobutyric acid] | (23) % | 7 | 55 ± 14 | 60 | 18 | (47) % | 14 | 62 ± 14 | 23% | 7 | (0) % | 0 | 25 ± 2 | 30 | 9 | (0) % | 0 | 26 ± 1 | 63 | 19 | –
5 | CC(C)(N)C(=O)O [alphaaminoiso., alpha aminoisobutyric acid] | (43) % | 13 | 66 ± 13 | 46 | 14 | (47) % | 14 | 64 ± 13 | 4d % | 12 | (13) % | 4 | 31 ± 10 | 50 | 15 | (7) % | 2 | 31 ± 7 | 20 | 6 | anti-tumour effect (in words): inhibit oncogenesis significantly
